Experimental data as given in patent publication US12697330B2, “Therapeutic methods using vadadustat” (Akebia Therapeutics, Inc., priority 2021, dated 2026).
One block for each molecule: values may come before it.

Assays:
Assay type in all cases: in vivo, human
[1] = system: total iron binding capacity (TIBC); assay: Phase 2a clinical trials in stage 3, 4, or 5 CKD patients: iron-related parameters
[2] = Phase 1b study: safety and tolerability
Excerpt: All subjects were followed for safety for 30 days after the Day 10 visitor 30 days after their last dose of study drug (vadadustat or ESA) if they discontinued study drug treatment early. Subjects returned to the clinic for safety assessments 2-5 days after completing Day 10/EOT and concluded the study with a follow-up telephone call to assess for AEs and concomitant medications 30 days after their last dose of study drug.
Safety Endpoints. Safety could be evaluated by: adverse events (AE), electrocardiogram (ECG), vital signs measurements, and clinical laboratory values.
Safety Population was defined as all subjects who received at least one dose of study drug. This population was analyzed based upon the actual treatment received.

hemodialysis subjects = assay: Main Study: vadadustat versus epoetin alfa in hemodialysis subjects (Hb, ESA/RBC rescue, EPO levels)
Excerpt: The primary efficacy endpoint was to assess the mean change in Hb between baseline and the PEP (Weeks 10 to 12) in hemodialysis subjects.
The first key secondary efficacy endpoint was the proportion of subjects with Hb values within the target range (10.0 to 11.0 g/dL, inclusive) at the PEP (Weeks 10 to 12).
The second key secondary endpoint was the mean change in Hb from PEP (average Hb from Weeks 10 to 12) to the SEP (average Hb from Weeks 18 to 20) for subjects who transitioned to TIW vadadustat dosing. In the Main Study, the change in Hb from PEP to SEP for the 17 subjects who switched from QD to TIW was −0.4 g/dL.

Hb = assay: Phase 1b study: pharmacodynamics, Hb, reticulocytes, iron indices, hepcidin; conditions: 10-day Treatment period
Excerpt: PD Sampling. For all vadadustat and ESA treatment groups, in addition to EPO, blood samples for Hb, reticulocytes and iron indices for PD analyses were collected on Day 1, Day 6 and Day 10. Hepcidin were collected predose on Day 1, Day 6, and Day 10 for PD analysis.
Secondary Endpoints. For each treatment group, PD parameters included, but were not limited to, as deemed appropriate: hepcidin, erythropoietin (EPO), iron indices (iron, ferritin, total iron-binding capacity [TIBC], TSAT), Hb, and reticulocytes.

[3] = Phase 1b study: pharmacokinetics of vadadustat and its metabolites in plasma of hemodialysis subjects with anemia associated with CKD
Description: The primary objective of the study was to assess the pharmacokinetics (PK) of vadadustat 600, 750, and 900 mg daily, and IV ESA (darbepoetin alfa or epoetin alfa) in hemodialysis subjects with anemia associated with CKD. Additional objectives included to evaluate the pharmacodynamics (PD) of vadadustat 600, 750, and 900 mg daily, and IV ESA (darbepoetin alfa or epoetin alfa) in hemodialysis subjects with anemia associated with CKD and to assess the safety and tolerability of vadadustat 600, 750, and 900 mg daily and IV ESA (darbepoetin alfa or epoetin alfa) in hemodialysis subjects with anemia associated with CKD.
Study Design. This was a Phase 1b, randomized, open-label study to evaluate the PK, PD, safety, and tolerability of vadadustat 600, 750, or 900 mg daily, or ESA (darbepoetin alfa or epoetin alfa) in hemodialysis subjects with anemia associated with CKD. The study included a 28-day Screening and Randomization period, a 10-day Treatment Period, and a 30-day Safety Follow up Period after the last dose of study drug (vadadustat or ESA). For subjects randomized to vadadustat, study duration also included an ESA washout period of a minimum of 5 days for epoetin alfa or 9 days for darbepoetin alfa or 9-day ESA Washout period prior to dosing on Day 1.
A total of 46 subjects were enrolled in the study. Written informed consent were obtained before any screening procedures were performed. Subjects were screened within 28 days prior to randomization. Eligible subjects were randomized in a 2:2:2:1 ratio to 1 of 4 treatment groups (600, 750, or 900 mg vadadustat QD, or ESA. Randomized subjects began their 10-day Treatment Period within 36 days of initiating screening.
Eligible subjects were randomly assigned in a 2:2:2:1 ratio to 1 of 4 treatment groups: Group 1—vadadustat 600 mg once daily (QD); Group 2—vadadustat 750 mg QD; Group 3—vadadustat 900 QD; and Group 4—IV ESA. Randomization was stratified by the mean weekly ESA dose calculated over a period of 8 weeks prior to the randomization visit. For darbepoetin, the groups were divided into low dose darbepoetin alfa group (<0.5 μg/kg/week) and high dose darbepoetin alfa group (>0.5 to <1.5 μg/kg/week). For epoetin, the groups were divided into low dose epoetin alfa group (≤90 U/kg/week) and high dose epoetin alfa group (>90 to <300 U/kg/week).
Subjects began dosing on Day 1 and took vadadustat at approximately the same time each day for a total of 10 days. On Day 1 and Day 8, subjects took vadadustat after all predose procedures are completed and within 30 minutes prior to the start of dialysis so that the 1-hour post dose blood sample for PK and PD was collected during dialysis. Vadadustat could be taken with or without food. Subjects were instructed to make every effort to take the drug consistently, either with or without food. Subjects were instructed to swallow the tablets whole with water.
PK and EPO Sample. For each vadadustat treatment group, blood samples for vadadustat PK (and its metabolites) and EPO were collected at the following time points: Day 1: predose, and at 1, 2, 3, 4, 5, 8, and 11 hours post dose; Day 2: 24 hours (−2 hours) post Day 1 dose; Day 6: blood sample for EPO analysis only was collected predose on Day 6; Day 8: predose, and at 1, 2, 3, 4, 5, 8, 11 hours post dose, Day 10 or EOT: predose. For the ESA treatment group, blood samples for analysis of EPO were collected at the following time points: Day 1: predose, and at 0.25, 1, 2, 3, 4, 5, 8, and 11 hours post dose; Day 2: 24 hours (−2 hours) post Day 1 dose.
Primary Endpoints. […]

TIBC versus dose [1]: dose-related increase | transferrin saturation (TSAT) [1]: decrease | total iron binding capacity (TIBC) levels ([1]; 6 weeks post administration, compared to placebo treated patients): increase
SMILES: O=C(O)CNC(=O)c1ncc(-c2cccc(Cl)c2)cc1O [Compound 1, {[5-(3-chlorophenyl)-3-hydroxypyridine-2-carbonyl]amino}acetic acid]
serum iron levels with the increase in TIBC [1]: not associated with an increase in serum iron levels

vadadustat exposure (AUC0-24 and Cmax) versus dose ([3]; Day 1 and Day 8): dose-dependent increase | exposure for vadadustat, as measured by AUC0-24, versus dose ([3]; Day 1 dosing, 600 to 750 to 900 mg): increased with increasing dose | Mean apparent total body clearance (CL/F) values across doses ([3]; Day 8, 600, 750, 900 mg): similar | Tmax ([3]; human, plasma, oral, 600, 750, and 900 mg groups, Day 1 and Day 8, during the dialysis, read-out: median Tmax of vadadustat): 2 to 3 h | accumulation versus dose ([3]; most pronounced in the 900 mg vadadustat treatment group): dose-dependent increase in accumulation
SMILES: O=C(O)CNC(=O)c1ncc(-c2cccc(Cl)c2)cc1O [vadadustat, {[5-(3-chlorophenyl)-3-hydroxypyridine-2-carbonyl]amino}acetic acid]
incidence of drug-related Treatment Emergent Adverse Events (TEAEs) ([2]; 3 vadadustat treatment arms): infrequent and similar across all 3 treatment arms | safety concerns ([2]; 600, 750, 900 mg QD, 10 days): No major safety concerns were observed | tolerability ([2]; oral administration, 600, 750, 900 mg QD, 10 days): generally well tolerated | subjects receiving ESA administration as rescue (hemodialysis subjects; Baseline (inclusive) to Week 12 (inclusive), compared to epoetin alfa treated subjects): more | subjects receiving any ESA administration (hemodialysis subjects; Baseline (inclusive) to Week 20 (inclusive), compared to epoetin alfa treated subjects): more | change in Hb from PEP (Weeks 10 to 12) to SEP (Weeks 18 to 20) (hemodialysis subjects; Main Study, 17 subjects who switched from QD to TIW): -0.4 g/dL | mean change from baseline in Hb (hemodialysis subjects; Main Study, baseline to PEP (Weeks 10 to 12), compared to epoetin alfa treatment group, throughout): numerically lower | mean (SD) Hb overall at Weeks 10 to 12 (hemodialysis subjects; Main Study, compared to epoetin alfa): lower | mean change in Hb between baseline and the SEP (hemodialysis subjects; Main Study, compared to epoetin alfa treatment group): lower | proportion of subjects with RBC transfusion and RBC transfusion as rescue (hemodialysis subjects; across treatment groups, all study periods): similar | change from baseline in Hb (hemodialysis subjects; high epoetin alfa stratum, vadadustat 300 mg, after Week 10 Hb began to return towards baseline): decrease from baseline in Hb up to Week 10 | number of subjects within target Hb range (hemodialysis subjects; high epoetin alfa stratum, vadadustat groups (particularly 300 mg) compared to epoetin alfa treatment group): numerically lower | change from baseline in Hb (hemodialysis subjects; low epoetin alfa stratum, except for the vadadustat 300 mg group throughout treatment): no decrease from baseline in Hb was observed | proportion of subjects with Hb values within the target range (10.0 to 11.0 g/dL, inclusive) at Weeks 10 to 12 (hemodialysis subjects; vadadustat 300 mg group of the high epoetin alfa stratum, lowest proportion): 8.3% | mean Hb levels versus dose (Hb): not a dose-dependent increase
